Assay results: patent publication US7964531B2, “3-phenoxy-4-pyridazinol derivatives and herbicidal composition containing the same” (Mitsui Chemicals Agro, Inc., priority 2001, dated 2011)

How the values were obtained:
Format in all cases: in vivo
Conditions in all cases: wettable powder applied 3 days after transplanting, judged after 25 days
[1] = system: transplanted paddy-field rice; test: Test Example 1: crop injury against transplanted paddy-field rice
Summary of the method: (§1)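 Greenhouse, flooded paddy soil; weeds from seed (top 1 cm), C. serotinus from germinated tubers, rice transplanted at 2.2-leaf stage. WP diluted in water, applied to pot day 3 post-transplant. Scored day 25 post-treatment, 0–5 inhibition scale.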

Scirpus joncoides = test: Test Example 1: herbicidal effects, paddy-field pot test
Summary of the method: as §1

[2] = system: barnyardgrass (Echinochloa oryzicola Vasing.); test: as above
Summary of the method: as §1

Cyperus serotinus = test: as above
Summary of the method: as §1

[3] = system: annual broad-leaved weeds (Lindernia spp., Rotala indica); test: as above
Summary of the method: as §1

| SMILES | Crop injury against transplanted rice ([1]; chemical dosage 10 g/a) | Crop injury against transplanted rice ([1]; chemical dosage 20 g/a) | Herbicidal effects Scirpus joncoides (Scirpus joncoides; chemical dosage 10 g/a) | Herbicidal effects Scirpus joncoides (Scirpus joncoides; chemical dosage 20 g/a) | Herbicidal effects Barnyard grass ([2]; chemical dosage 10 g/a) | Herbicidal effects Barnyard grass ([2]; chemical dosage 20 g/a) | Herbicidal effects Cyperus serotinus (Cyperus serotinus; chemical dosage 10 g/a) | Herbicidal effects Cyperus serotinus (Cyperus serotinus; chemical dosage 20 g/a) | Herbicidal effects Broad leaf ([3]; chemical dosage 10 g/a) | Herbicidal effects Broad leaf ([3]; chemical dosage 20 g/a) | also measured |
| --- | --- | --- | --- | --- | --- | --- | --- | --- | --- | --- | --- |
| CC1CCc2cccc(Oc3nnc(Cl)cc3O)c21 (stereo not drawn) [Example 172] | 0 (Growth inhibition rate; 0 to 10%) | 0 (Growth inhibition rate; 0 to 10%) | 5 (Growth inhibition rate; 91 to 100%) | 5 (Growth inhibition rate; 91 to 100%) | 5 (Growth inhibition rate; 91 to 100%) | 5 (Growth inhibition rate; 91 to 100%) | 4 (Growth inhibition rate; 71 to 90%) | 5 (Growth inhibition rate; 91 to 100%) | 5 (Growth inhibition rate; 91 to 100%) | 5 (Growth inhibition rate; 91 to 100%) | – |
| Oc1cc(Cl)nnc1Oc1cccc2c1OCC2 [Example 189] | 3 (Growth inhibition rate; 51 to 70%) | – | 5 (Growth inhibition rate; 91 to 100%) | – | 3 (Growth inhibition rate; 51 to 70%) | – | 5 (Growth inhibition rate; 91 to 100%) | – | 5 (Growth inhibition rate; 91 to 100%) | – | Crop injury against transplanted rice ([1]; chemical dosage 5 g/a): 0 (Growth inhibition rate; 0 to 10%); Herbicidal effects Scirpus joncoides (Scirpus joncoides; chemical dosage 5 g/a): 4 (Growth inhibition rate; 71 to 90%); Herbicidal effects Barnyard grass ([2]; chemical dosage 5 g/a): 2 (Growth inhibition rate; 31 to 50%); Herbicidal effects Cyperus serotinus (Cyperus serotinus; chemical dosage 5 g/a): 5 (Growth inhibition rate; 91 to 100%); Herbicidal effects Broad leaf ([3]; chemical dosage 5 g/a): 5 (Growth inhibition rate; 91 to 100%) |
| Oc1cc(Cl)nnc1Oc1cccc2sccc12 [Example 185] | – | – | – | – | – | – | – | – | – | – | Crop injury against transplanted rice ([1]; chemical dosage 5 g/a): 0 (Growth inhibition rate; 0 to 10%); Herbicidal effects Scirpus joncoides (Scirpus joncoides; chemical dosage 5 g/a): 2 (Growth inhibition rate; 31 to 50%); Herbicidal effects Barnyard grass ([2]; chemical dosage 5 g/a): 1 (Growth inhibition rate; 11 to 30%); Herbicidal effects Cyperus serotinus (Cyperus serotinus; chemical dosage 5 g/a): 3 (Growth inhibition rate; 51 to 70%); Herbicidal effects Broad leaf ([3]; chemical dosage 5 g/a): 3 (Growth inhibition rate; 51 to 70%) |
| Oc1cc(Cl)nnc1Oc1ccccc1Cl [Example 50] | – | – | – | – | – | – | – | – | – | – | Crop injury against transplanted rice ([1]; chemical dosage 12.5 g/a): 0 (Growth inhibition rate; 0 to 10%); Crop injury against transplanted rice ([1]; chemical dosage 25 g/a): 0 (Growth inhibition rate; 0 to 10%); Herbicidal effects Scirpus joncoides (Scirpus joncoides; chemical dosage 12.5 g/a): 3 (Growth inhibition rate; 51 to 70%); Herbicidal effects Scirpus joncoides (Scirpus joncoides; chemical dosage 25 g/a): 4 (Growth inhibition rate; 71 to 90%); Herbicidal effects Barnyard grass ([2]; chemical dosage 12.5 g/a): 2 (Growth inhibition rate; 31 to 50%); Herbicidal effects Barnyard grass ([2]; chemical dosage 25 g/a): 3 (Growth inhibition rate; 51 to 70%); Herbicidal effects Cyperus serotinus (Cyperus serotinus; chemical dosage 12.5 g/a): 5 (Growth inhibition rate; 91 to 100%); Herbicidal effects Cyperus serotinus (Cyperus serotinus; chemical dosage 25 g/a): 5 (Growth inhibition rate; 91 to 100%); Herbicidal effects Broad leaf ([3]; chemical dosage 12.5 g/a): 5 (Growth inhibition rate; 91 to 100%); Herbicidal effects Broad leaf ([3]; chemical dosage 25 g/a): 5 (Growth inhibition rate; 91 to 100%) |
| CCc1ccc2c(c1Oc1nnc(Cl)cc1O)CCC2 [Example 306] | 0 (Growth inhibition rate; 0 to 10%) | – | 5 (Growth inhibition rate; 91 to 100%) | – | 1 (Growth inhibition rate; 11 to 30%) | – | 5 (Growth inhibition rate; 91 to 100%) | – | 5 (Growth inhibition rate; 91 to 100%) | – | – |
| COC(=O)Oc1cc(Cl)nnc1Oc1ccccc1C1CC1 [Example 345] | 0 (Growth inhibition rate; 0 to 10%) | 0 (Growth inhibition rate; 0 to 10%) | 5 (Growth inhibition rate; 91 to 100%) | 5 (Growth inhibition rate; 91 to 100%) | 3 (Growth inhibition rate; 51 to 70%) | 4 (Growth inhibition rate; 71 to 90%) | 5 (Growth inhibition rate; 91 to 100%) | 5 (Growth inhibition rate; 91 to 100%) | 5 (Growth inhibition rate; 91 to 100%) | 5 (Growth inhibition rate; 91 to 100%) | – |
| Oc1cc(Cl)nnc1Oc1c(C2CC2)ccc2ccoc12 [Example 311] | 0 (Growth inhibition rate; 0 to 10%) | 0 (Growth inhibition rate; 0 to 10%) | 4 (Growth inhibition rate; 71 to 90%) | 5 (Growth inhibition rate; 91 to 100%) | 1 (Growth inhibition rate; 11 to 30%) | 3 (Growth inhibition rate; 51 to 70%) | 4 (Growth inhibition rate; 71 to 90%) | 5 (Growth inhibition rate; 91 to 100%) | 5 (Growth inhibition rate; 91 to 100%) | 5 (Growth inhibition rate; 91 to 100%) | – |
| CCc1cccc(CC)c1Oc1nnc(Cl)cc1O [Example 268] | – | – | – | – | – | – | – | – | – | – | Crop injury against transplanted rice ([1]; chemical dosage 12.5 g/a): 1 (Growth inhibition rate; 11 to 30%); Crop injury against transplanted rice ([1]; chemical dosage 25 g/a): 1 (Growth inhibition rate; 11 to 30%); Herbicidal effects Scirpus joncoides (Scirpus joncoides; chemical dosage 12.5 g/a): 5 (Growth inhibition rate; 91 to 100%); Herbicidal effects Scirpus joncoides (Scirpus joncoides; chemical dosage 25 g/a): 5 (Growth inhibition rate; 91 to 100%); Herbicidal effects Barnyard grass ([2]; chemical dosage 12.5 g/a): 0 (Growth inhibition rate; 0 to 10%); Herbicidal effects Barnyard grass ([2]; chemical dosage 25 g/a): 1 (Growth inhibition rate; 11 to 30%); Herbicidal effects Cyperus serotinus (Cyperus serotinus; chemical dosage 12.5 g/a): 5 (Growth inhibition rate; 91 to 100%); Herbicidal effects Cyperus serotinus (Cyperus serotinus; chemical dosage 25 g/a): 5 (Growth inhibition rate; 91 to 100%); Herbicidal effects Broad leaf ([3]; chemical dosage 12.5 g/a): 5 (Growth inhibition rate; 91 to 100%); Herbicidal effects Broad leaf ([3]; chemical dosage 25 g/a): 5 (Growth inhibition rate; 91 to 100%) |
| COc1cccc(Br)c1Oc1nnc(Cl)cc1O [Example 255] | 0 (Growth inhibition rate; 0 to 10%) | 2 (Growth inhibition rate; 31 to 50%) | 4 (Growth inhibition rate; 71 to 90%) | 4 (Growth inhibition rate; 71 to 90%) | 5 (Growth inhibition rate; 91 to 100%) | 5 (Growth inhibition rate; 91 to 100%) | 5 (Growth inhibition rate; 91 to 100%) | 5 (Growth inhibition rate; 91 to 100%) | 5 (Growth inhibition rate; 91 to 100%) | 5 (Growth inhibition rate; 91 to 100%) | – |
| COc1cccc(C2CC2)c1Oc1nnc(Cl)cc1O [Example 276] | 0 (Growth inhibition rate; 0 to 10%) | 0 (Growth inhibition rate; 0 to 10%) | 3 (Growth inhibition rate; 51 to 70%) | 4 (Growth inhibition rate; 71 to 90%) | 3 (Growth inhibition rate; 51 to 70%) | 4 (Growth inhibition rate; 71 to 90%) | 5 (Growth inhibition rate; 91 to 100%) | 5 (Growth inhibition rate; 91 to 100%) | 5 (Growth inhibition rate; 91 to 100%) | 5 (Growth inhibition rate; 91 to 100%) | – |
| Cc1cccc(Oc2nnc(Cl)cc2O)c1C1CC1 [Example 166] | 0 (Growth inhibition rate; 0 to 10%) | 0 (Growth inhibition rate; 0 to 10%) | 5 (Growth inhibition rate; 91 to 100%) | 5 (Growth inhibition rate; 91 to 100%) | 0 (Growth inhibition rate; 0 to 10%) | 1 (Growth inhibition rate; 11 to 30%) | 5 (Growth inhibition rate; 91 to 100%) | 5 (Growth inhibition rate; 91 to 100%) | 5 (Growth inhibition rate; 91 to 100%) | 5 (Growth inhibition rate; 91 to 100%) | – |
| CCc1ccccc1Oc1nnc(Cl)cc1O [Example 55] | – | – | – | – | – | – | – | – | – | – | Crop injury against transplanted rice ([1]; chemical dosage 12.5 g/a): 0 (Growth inhibition rate; 0 to 10%); Crop injury against transplanted rice ([1]; chemical dosage 25 g/a): 0 (Growth inhibition rate; 0 to 10%); Herbicidal effects Scirpus joncoides (Scirpus joncoides; chemical dosage 12.5 g/a): 3 (Growth inhibition rate; 51 to 70%); Herbicidal effects Scirpus joncoides (Scirpus joncoides; chemical dosage 25 g/a): 4 (Growth inhibition rate; 71 to 90%); Herbicidal effects Barnyard grass ([2]; chemical dosage 12.5 g/a): 2 (Growth inhibition rate; 31 to 50%); Herbicidal effects Barnyard grass ([2]; chemical dosage 25 g/a): 2 (Growth inhibition rate; 31 to 50%); Herbicidal effects Cyperus serotinus (Cyperus serotinus; chemical dosage 12.5 g/a): 5 (Growth inhibition rate; 91 to 100%); Herbicidal effects Cyperus serotinus (Cyperus serotinus; chemical dosage 25 g/a): 5 (Growth inhibition rate; 91 to 100%); Herbicidal effects Broad leaf ([3]; chemical dosage 12.5 g/a): 5 (Growth inhibition rate; 91 to 100%); Herbicidal effects Broad leaf ([3]; chemical dosage 25 g/a): 5 (Growth inhibition rate; 91 to 100%) |
| O=C(Oc1cc(Cl)nnc1Oc1ccccc1C1CC1)C1CC1 [Example 327] | 0 (Growth inhibition rate; 0 to 10%) | 0 (Growth inhibition rate; 0 to 10%) | 5 (Growth inhibition rate; 91 to 100%) | 5 (Growth inhibition rate; 91 to 100%) | 4 (Growth inhibition rate; 71 to 90%) | 4 (Growth inhibition rate; 71 to 90%) | 5 (Growth inhibition rate; 91 to 100%) | 5 (Growth inhibition rate; 91 to 100%) | 5 (Growth inhibition rate; 91 to 100%) | 5 (Growth inhibition rate; 91 to 100%) | – |
